Data reported in patent publication US6818612B2, “Use of parvovirus capsid particles in the inhibition of cell proliferation and migration” (priority 1998, dated 2004).

Experiments:
[1] = system: umbilical cord blood cells; assay: Colony formation assay on cord blood cells; assay type: cell-based, human; conditions: for Colony Counts (% of medium control) BFU-E / Colony Counts (% of medium control) CFU-GEMM / Colony Counts (% of medium control) CFU-GM: Cord blood cells, 11 day culture
Excerpt: (§1) A commercial kit—the “Stem cell CFU kit” (GIBCO BRL, Life Technology Inc., NY, USA)—was used to perform the colony formation assays. The kit provides a semi-solid support that mimics the extracellular matrix produced by stromal cells. Other components included in the kit are: Iscove's modified Dulbecco's medium, modified fetal bovine serum, methylcellulose, 2-mercaptoethanol, conditioned medium and erythropoietin. The colonies that were formed in the assay were identified as BFU-E (burst forming unit-erythroid cells) with densely packed hemoglobonized cells, CFU-GM (colony forming units-granulocytes, macrophages) with arrangements of non-hemoglobinized cells, and CFU-GEMM (colony forming units-granulocytes, erythroid cells, macrophages, megakaryocytes) with hemoglobinized cells and small and large peripheral cells.
(§2) Recombinant B19 parvovirus empty capsid particles (Kajigaya et al., Proc Natl Acad Sci USA, 88:4646 (1991)) were prepared in a recombinant baculovirus-insect cell (Spodofera frugiperda) expression system. (Kajigaya et al., Proc Natl Acad Sci USA, 88:4646 (1991)). The isolated or purified capsids were diluted in buffer (20 mM Tris, 0.5M NaCl, pH 8.5) and 30 μL of each dilution was added to approximately 25×10^3 cells (50×10^3 for postnatal cells) in 100 μL of culture medium and incubated for 1 hour at 4° C. The mixtures were then transferred to incubation dishes and culture medium was added to a final volume of 0.5 ml per well. The cells were then incubated for 11 days in a humidified atmosphere at 5% CO2, and were scored for BFU-E, CFU-GM and CFU-GEMM derived colony formation.
(§3) The inhibitory effect of B19 parvovirus capsids on colony formation was also tested using fresh stem cells derived from cord blood and adult bone marrow samples. Colony formation assays in the presence of B19 parvovirus capsids were performed on cells obtained from umbilical cord blood and bone marrow using the protocol described above. Umbilical cord blood samples were obtained immediately after vaginal delivery from normal births. Samples of adult bone marrow were obtained from healthy allogeneic donors. Suspensions of fresh cells were heparinized and diluted in 0.9% NaCl and separated on Lymphoprep (Nycomed, Parma, Oslo, Norway) for gradient centrifugation at 2000 rpm for 20 min. Cells were carefully removed with a Pasteur pipette, washed three times in 0.9% NaCl, counted and diluted in culture medium in preparation for the colony formation assays.

[2] = system: hematopoietic cells obtained from the bone marrow of monkeys; assay: Colony formation assay on monkey bone marrow cells (Macaque); assay type: cell-based; conditions: FIG. 2, varying concentrations of capsid
Protocol: (§4) Additionally, colony formation assays in the presence of B19 parvovirus […] were performed, as described above, using hematopoietic cells obtained from the bone marrow of monkeys (Baboons and Macaques).

adult bone marrow cells = assay: Colony formation assay on adult bone marrow cells; assay type: cell-based, human; conditions: for Colony Counts (% of medium control) BFU-E / Colony Counts (% of medium control) CFU-GEMM / Colony Counts (% of medium control) CFU-GM: Bone marrow cells, 11 day culture
Excerpt: as §1, §2, §3

[3] = system: hematopoietic cells obtained from the bone marrow of monkeys; assay: Colony formation assay on monkey bone marrow cells (Baboon); assay type: cell-based; conditions: FIG. 2, varying concentrations of capsid
Protocol: as §4

human fetal liver cells = assay: Colony formation assay (Stem cell CFU kit, 11 day) of fetal liver cells; assay type: cell-based
Excerpt: In a first set of experiments, it was discovered that B19 parvovirus capsids inhibit hematopoiesis and that these molecules could be used to reduce the overproduction of red blood cells, white blood cells, and blood platelets, as is experienced by patients suffering from hematological proliferative diseases, such as Polycytemia Vera. (See FIG. 1A). In a first set of experiments, fresh human fetal liver cells, umbilical cord blood cells, and bone marrow cells were contacted with recombinant B19 parvovirus capsids in a colony formation assay. The general features of a colony formation assay are depicted in FIG. 1B. The ability of the B19 parvovirus capsids to inhibit hematopoiesis was verified by the reduction of colony formation in the presence of the capsids, as compared to untreated control populations of cells. A more detailed description of these experiments is provided below.
To obtain fetal liver tissue, human fetuses 6-12 weeks of gestational age were obtained from legal abortions; the patients had volunteered to donate fetal tissue. Gestational age was estimated according to specific anatomical markers and is given as menstruational age. Abortions were performed with vacuum aspirations. Fetal liver was dissected under sterile conditions, placed in a sterile tube containing RPMI1640 and disintegrated by passage through a vinyl mesh to form a single cell suspension. Nucleated cells were then washed three times, counted and diluted in culture medium.
as §1, §2

[4] = B19 parvovirus capsid 0.0007 μg/ml
[5] = B19 parvovirus capsid 0.007 μg/ml
[6] = B19 parvovirus capsid 0.07 μg/ml
[7] = B19 parvovirus capsid 0.7 μg/ml
[8] = B19 parvovirus capsid 7.0 μg/ml
[9] = compared with fetal liver cells
[10] = capsid only, B19 parvovirus capsid 0.14 μg/ml, fetal liver cells, 11 day culture
[11] = capsid only, B19 parvovirus capsid 7 μg/ml, fetal liver cells, 11 day culture
[12] = fetal liver cells, 0.07 μg/ml VP1/2 capsid, FIG. 3
[13] = fetal liver cells, B19 parvovirus capsid 0.007 μg/ml, 11 day culture
[14] = fetal liver cells, B19 parvovirus capsid 0.7 μg/ml, 11 day culture
[15] = fetal liver cells, B19 parvovirus capsid 70.0 μg/ml, pre-incubated prior to 11 day culture

**Q.** Which “Colony Counts (% of medium control) BFU-E” value [1, 4] does the source give for “B19 parvovirus capsid: Recombinant empty B19 parvovirus capsid particles (95% VP2, 5% VP1) from a baculovirus-insect cell expression system” here?
**A.** Its value is 84% of medium control.

**Q.** And the “Colony Counts (% of medium control) CFU-GEMM” value [1, 4]?
**A.** The value was 93% of medium control.

**Q.** And the “Colony Counts (% of medium control) CFU-GM” value [1, 4]?
**A.** Its value is 79% of medium control.

**Q.** And the “Colony Counts (% of medium control) BFU-E” value [1, 5]?
**A.** Its value is 57% of medium control.

**Q.** And the “Colony Counts (% of medium control) CFU-GEMM” value [1, 5]?
**A.** Its value is 70% of medium control.

**Q.** What about the “Colony Counts (% of medium control) CFU-GM” value [1, 5] of the same substance?
**A.** Its value is 67% of medium control.

**Q.** And the “Colony Counts (% of medium control) BFU-E” value [1, 6]?
**A.** Its value is 49% of medium control.

**Q.** What about the “Colony Counts (% of medium control) CFU-GEMM” value [1, 6] of the same substance?
**A.** Its value is 50% of medium control.

**Q.** And the “Colony Counts (% of medium control) CFU-GM” value [1, 6]?
**A.** The value was 72% of medium control.

**Q.** And the “Colony Counts (% of medium control) BFU-E” value [1, 7]?
**A.** The value was 33% of medium control.

**Q.** And the “Colony Counts (% of medium control) CFU-GEMM” value [1, 7]?
**A.** The value was 43% of medium control.

**Q.** And the “Colony Counts (% of medium control) CFU-GM” value [1, 7]?
**A.** Its value is 62% of medium control.

**Q.** What about the “Colony Counts (% of medium control) BFU-E” value [1, 8] of the same substance?
**A.** Its value is 10% of medium control.

**Q.** What about the “Colony Counts (% of medium control) CFU-GEMM” value [1, 8] of the same substance?
**A.** Its value is 43% of medium control.

**Q.** What about the “Colony Counts (% of medium control) CFU-GM” value [1, 8] of the same substance?
**A.** Its value is 54% of medium control.

**Q.** And the “growth of cells obtained from human cord blood” value ([1]; FIG. 1C, varying concentrations of capsid)?
**A.** Its value is “decreased as the concentration of B19 parvovirus capsid increased”.

**Q.** What about the “ability to inhibit hematopoietic cells obtained from cord blood” value [1, 9] of the same substance?
**A.** The value was “comparable to that exhibited with fetal liver cells”.

**Q.** What about the “primate hematopoietic cell growth” value [2] of the same substance?
**A.** The value was “decreased in concordance with an increase in concentration of B19 parvovirus capsid”.

**Q.** And the “Colony Counts (% of medium control) BFU-E” value (adult bone marrow cells; [4])?
**A.** Its value is 86% of medium control.

**Q.** And the “Colony Counts (% of medium control) CFU-GEMM” value (adult bone marrow cells; [4])?
**A.** Its value is 78% of medium control.

**Q.** And the “Colony Counts (% of medium control) CFU-GM” value (adult bone marrow cells; [4])?
**A.** The value was 77% of medium control.

**Q.** What about the “Colony Counts (% of medium control) BFU-E” value (adult bone marrow cells; [5]) of the same substance?
**A.** The value was 76% of medium control.

**Q.** What about the “Colony Counts (% of medium control) CFU-GEMM” value (adult bone marrow cells; [5]) of the same substance?
**A.** Its value is 78% of medium control.

**Q.** What about the “Colony Counts (% of medium control) CFU-GM” value (adult bone marrow cells; [5]) of the same substance?
**A.** The value was 80% of medium control.

**Q.** And the “Colony Counts (% of medium control) BFU-E” value (adult bone marrow cells; [6])?
**A.** The value was 63% of medium control.

**Q.** What about the “Colony Counts (% of medium control) CFU-GEMM” value (adult bone marrow cells; [6]) of the same substance?
**A.** The value was 44% of medium control.

**Q.** What about the “Colony Counts (% of medium control) CFU-GM” value (adult bone marrow cells; [6]) of the same substance?
**A.** Its value is 41% of medium control.

**Q.** And the “Colony Counts (% of medium control) BFU-E” value (adult bone marrow cells; [7])?
**A.** The value was 43% of medium control.

**Q.** What about the “Colony Counts (% of medium control) CFU-GEMM” value (adult bone marrow cells; [7]) of the same substance?
**A.** The value was 28% of medium control.

**Q.** And the “Colony Counts (% of medium control) CFU-GM” value (adult bone marrow cells; [7])?
**A.** Its value is 45% of medium control.

**Q.** What about the “Colony Counts (% of medium control) BFU-E” value (adult bone marrow cells; [8]) of the same substance?
**A.** Its value is 18% of medium control.

**Q.** What about the “Colony Counts (% of medium control) CFU-GEMM” value (adult bone marrow cells; [8]) of the same substance?
**A.** Its value is 6% of medium control.

**Q.** What about the “Colony Counts (% of medium control) CFU-GM” value (adult bone marrow cells; [8]) of the same substance?
**A.** The value was 36% of medium control.

**Q.** What about the “ability to inhibit hematopoietic cells obtained from bone marrow” value (adult bone marrow cells; [9]) of the same substance?
**A.** Its value is “comparable to that exhibited with fetal liver cells”.

**Q.** And the “primate hematopoietic cell growth” value [3]?
**A.** The value was “decreased in concordance with an increase in concentration of B19 parvovirus capsid”.

**Q.** And the “inhibition of fetal liver cell colony formation” value (human fetal liver cells; B19 parvovirus capsids 0.14 μg/ml, in the absence of sera)?
**A.** The value was “significantly inhibited”.

**Q.** And the “Colony Counts (% of medium control) BFU-E” value (human fetal liver cells; [10])?
**A.** The value was 18% of medium control.

**Q.** And the “Colony Counts (% of medium control) CFU-GEMM” value (human fetal liver cells; [10])?
**A.** Its value is 63% of medium control.

**Q.** And the “Colony Counts (% of medium control) CFU-GM” value (human fetal liver cells; [10])?
**A.** The value was 17% of medium control.

**Q.** What about the “Colony Counts (% of medium control) BFU-E” value (human fetal liver cells; [11]) of the same substance?
**A.** The value was 43% of medium control.

**Q.** And the “Colony Counts (% of medium control) CFU-GEMM” value (human fetal liver cells; [11])?
**A.** The value was 21% of medium control.

**Q.** And the “Colony Counts (% of medium control) CFU-GM” value (human fetal liver cells; [11])?
**A.** Its value is 30% of medium control.

**Q.** What about the “colony formation, % of the medium control” value (human fetal liver cells; [12]) of the same substance?
**A.** The value was ~60 % of the medium control.

**Q.** What about the “inhibition of colony formation” value (human fetal liver cells; [12]) of the same substance?
**A.** Its value is “approximately 40%”.

**Q.** And the “inhibition of colony formation of hematopoietic cells” value (human fetal liver cells; fetal liver cells, 70.0 μg/ml B19 parvovirus capsid)?
**A.** The value was “considerable inhibition”.

**Q.** And the “lowest concentration at which inhibition of colony formation of hematopoietic cells was seen” value (human fetal liver cells; fetal liver cells, 11 day colony formation assay, 'as little as' / 'as low as')?
**A.** Its value is 0.007 µg/mL.

**Q.** And the “Colony Counts (% of medium control) BFU-E” value (human fetal liver cells; [13])?
**A.** Its value is 79% of medium control.

**Q.** And the “Colony Counts (% of medium control) CFU-GEMM” value (human fetal liver cells; [13])?
**A.** The value was 94% of medium control.

**Q.** And the “Colony Counts (% of medium control) CFU-GM” value (human fetal liver cells; [13])?
**A.** Its value is 95% of medium control.

**Q.** What about the “Colony Counts (% of medium control) BFU-E” value (human fetal liver cells; [14]) of the same substance?
**A.** Its value is 39% of medium control.

**Q.** What about the “Colony Counts (% of medium control) CFU-GEMM” value (human fetal liver cells; [14]) of the same substance?
**A.** Its value is 63% of medium control.

**Q.** What about the “Colony Counts (% of medium control) CFU-GM” value (human fetal liver cells; [14]) of the same substance?
**A.** Its value is 54% of medium control.

**Q.** And the “Colony Counts (% of medium control) BFU-E” value (human fetal liver cells; [15])?
**A.** The value was 22% of medium control.

**Q.** And the “Colony Counts (% of medium control) CFU-GEMM” value (human fetal liver cells; [15])?
**A.** Its value is 31% of medium control.

**Q.** And the “Colony Counts (% of medium control) CFU-GM” value (human fetal liver cells; [15])?
**A.** Its value is 14% of medium control.
